Test [1] addresses T1, human CB1 receptors (Homo sapiens, UniProt P21554).
T1 construct: expressed in transfected cells; host or cells: CHO cells
Nature of the test: functional cAMP assay, human CB1. Type of test: cell-based. The method, then: (§1) CHO cells expressing human CB1 or CB2 receptors are seeded 17-24 hours prior to the experiment 50.000 cells per well in a black 96 well plate with flat clear bottom (Corning Costar #3904) in DMEM (Invitrogen No. 31331), 1×HT supplement, with 10% fetal calf serum and incubated at 5% CO2 and 37° C. in a humidified incubator. The growth medium was exchanged with Krebs Ringer Bicarbonate buffer with 1 mM IBMX and incubated at 30° C. for 30 min. Compounds were added to a final assay volume of 100 μl and incubated for 30 min at 30° C. Using the cAMP-Nano-TRF detection kit the assay (Roche Diagnostics) was stopped by the addition of 50 μl lysis reagent (Tris, NaCl, 1.5% Triton X100, 2.5% NP40, 10% NaN3) and 50 μl detection solutions (20 μM mAb Alexa700-cAMP 1:1, and 48 μM Ruthenium-2-AHA-cAMP) and shaken for 2 h at room temperature. The time-resolved energy transfer is measured by a TRF reader (Evotec Technologies GmbH), equipped with a ND:YAG laser as excitation source. The plate is measured twice with the excitation at 355 nm and at the emission with a delay of 100 ns and a gate of 100 ns, total exposure time 10 s at 730 (bandwidth 30 nm) or 645 nm (bandwidth 75 nm), respectively. The FRET signal is calculated as follows: FRET=T730-Alexa730-P(T645-B645) with P=Ru730-B730/Ru645-B645, where T730 is the test well measured at 730 nM, T645 is the test well measured at 645 nm, B730 and B645 are the buffer controls at 730 nm and 645 nm, respectively. cAMP content is determined from the function of a standard curve spanning from 10 μM to 0.13 nM cAMP.
(§2) EC50 values were determined using Activity Base analysis (ID Business Solution, Limited). The EC50 values for a wide range of cannabinoid agonists generated from this assay were in agreement with the values published in the scientific literature.

For test [2], the target named is T2, human CB2 receptors (Homo sapiens, UniProt P34972).
T2 construct: expressed in transfected cells; host or cells: CHO cells
T2 sequence (P34972 whole entry): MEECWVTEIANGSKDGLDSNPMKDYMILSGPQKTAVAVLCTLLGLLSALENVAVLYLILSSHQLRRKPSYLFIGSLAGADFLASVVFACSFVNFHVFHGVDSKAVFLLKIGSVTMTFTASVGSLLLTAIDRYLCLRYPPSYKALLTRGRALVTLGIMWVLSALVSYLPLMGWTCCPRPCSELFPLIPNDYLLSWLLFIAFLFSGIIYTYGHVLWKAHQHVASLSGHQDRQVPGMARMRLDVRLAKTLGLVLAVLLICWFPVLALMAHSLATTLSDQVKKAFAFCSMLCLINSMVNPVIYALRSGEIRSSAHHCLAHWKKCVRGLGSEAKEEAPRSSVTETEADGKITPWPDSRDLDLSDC
The test is described as follows: functional cAMP assay, human CB2. Type of test: cell-based. The conditions noted are these: CHO cells expressing human CB2, cAMP; read-out: human CB2 EC50. The method, then:
as §1, §2

The mark [3] stands for this setting: CHO cells expressing human CB1, cAMP, read-out: human CB1 EC50.

Read-outs that look alike come from different tables or passages of the source.

This note sets out measurements from patent US8741906B2 (priority 2011, dated 2014).

T1 sequence (P21554 whole entry): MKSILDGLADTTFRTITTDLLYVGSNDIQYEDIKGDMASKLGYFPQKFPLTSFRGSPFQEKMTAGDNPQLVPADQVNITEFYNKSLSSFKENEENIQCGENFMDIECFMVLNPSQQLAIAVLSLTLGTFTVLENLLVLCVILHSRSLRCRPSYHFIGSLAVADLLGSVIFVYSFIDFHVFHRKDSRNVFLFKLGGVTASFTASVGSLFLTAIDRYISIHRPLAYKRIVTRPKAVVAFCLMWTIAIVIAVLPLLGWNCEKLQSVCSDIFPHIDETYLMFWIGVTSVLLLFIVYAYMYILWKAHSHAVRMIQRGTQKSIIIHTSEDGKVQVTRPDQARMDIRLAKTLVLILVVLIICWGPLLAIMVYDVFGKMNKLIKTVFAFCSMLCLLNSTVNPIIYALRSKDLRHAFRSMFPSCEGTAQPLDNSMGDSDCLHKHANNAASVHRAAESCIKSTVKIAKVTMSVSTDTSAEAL

In the case of `CC(C)(C)c1nc(N2C[C@@H](O)[C@H](O)C2)c2nnn(Cc3ccccc3Cl)c2n1` (relative stereo) [Example 55, 1-[5-tert-Butyl-3-(2-chloro-benzyl)-3H-[1,2,3]triazolo[4,5-c]pyrimidin-7-yl]-pyrrolidine-3,4-trans-diol], the EC50 in test [1] (setting [3]) is more than 10000 nM; in test [2] it was 10.4 nM. For the compound `CC(C)(C)c1nc(N2CCOCC2)c2nnn(Cc3ccccc3Cl)c2n1` [Example 1, 5-tert-butyl-3-(2-chlorobenzyl)-7-morpholin-4-yl-3H-[1,2,3]triazolo[4,5-d]pyrimidine], the figures for the EC50 in test [1] (setting [3]) and in test [2] were 1060 nM and 0.6 nM, respectively.

For the compound `CC(C)(C)c1nc(N2CCCCC2)c2nnn(Cc3ccccc3Cl)c2n1` [Example 2, 5-tert-Butyl-3-(2-chloro-benzyl)-7-piperidin-1-yl-3H-[1,2,3]triazolo[4,5-d]pyrimidine], the EC50 was 555 nM in test [1] (setting [3]) and 1.6 nM in test [2]. For `CC(C)(C)c1nc(N2CCC(F)(F)CC2)c2nnn(Cc3ccccc3Cl)c2n1` [Example 3, 5-tert-Butyl-3-(2-chloro-benzyl)-7-(4,4-difluoro-piperidin-1-yl)-3H-[1,2,3]triazolo[4,5-d]pyrimidine], in that order: 160 nM and 1.3 nM. As to `CN1CCN(c2nc(C(C)(C)C)nc3c2nnn3Cc2ccccc2Cl)CC1` [Example 4, 5-tert-Butyl-3-(2-chloro-benzyl)-7-(4-methyl-piperazin-1-yl)-3H-[1,2,3]triazolo[4,5-d]pyrimidine], the concentration for a half-maximal effect (EC50) in test [1] (setting [3]) was 190 nM; in test [2] it was 1.4 nM. As to `CC(C)(C)c1nc(N2CCCC2)c2nnn(Cc3ccccc3Cl)c2n1` [Example 5, 5-tert-Butyl-3-(2-chloro-benzyl)-7-pyrrolidin-1-yl-3H-[1,2,3]triazolo[4,5-d]pyrimidine], the EC50 in test [1] (setting [3]) came to 632 nM; in test [2] it was 0.3 nM. On the same counts, the results for `CC(C)(C)c1nc(N2CCC(F)(F)C2)c2nnn(Cc3ccccc3Cl)c2n1` [Example 6, 5-tert-Butyl-3-(2-chloro-benzyl)-7-(3,3-difluoro-pyrrolidin-1-yl)-3H-[1,2,3]triazolo[4,5-d]pyrimidine] are 165 nM and 0.2 nM.

On to `CCNc1nc(C(C)(C)C)nc2c1nnn2Cc1ccccc1Cl` [Example 7, [5-tert-Butyl-3-(2-chloro-benzyl)-3H-[1,2,3]triazolo[4,5-d]pyrimidin-7-yl]-ethyl-amine], for which the figures for the EC50 in test [1] (setting [3]) and in test [2] were more than 10000 nM and 11.2 nM, respectively. For `CC(C)(C)c1nc(NC2CCCCC2)c2nnn(Cc3ccccc3Cl)c2n1` [Example 8, [5-tert-Butyl-3-(2-chloro-benzyl)-3H-[1,2,3]triazolo[4,5-d]pyrimidin-7-yl]-cyclohexyl-amine], the EC50 in test [1] was more than 10000 nM; in test [2], 647 nM.

As for `CCN(CC)c1nc(C(C)(C)C)nc2c1nnn2Cc1ccccc1Cl` [Example 9, [5-tert-Butyl-3-(2-chloro-benzyl)-3H-[1,2,3]triazolo[4,5-d]pyrimidin-7-yl]-diethyl-amine], the concentration for a half-maximal effect (EC50) is more than 10000 nM in test [1] (setting [3]) and 17.6 nM in test [2]. For `CC(C)(C)c1nc(N2CC3(COC3)C2)c2nnn(Cc3ccccc3Cl)c2n1` [Example 10, 5-tert-Butyl-3-(2-chloro-benzyl)-7-(2-oxa-6-aza-spiro[3.3]hept-6-yl)-3H-[1,2,3]triazolo[4,5-d]pyrimidine], in that order: 404 nM and 2.4 nM.

Consider `CC(C)(C)c1nc(N2CCC2)c2nnn(Cc3ccccc3Cl)c2n1` [Example 11, 7-Azetidin-1-yl-5-tert-butyl-3-(2-chloro-benzyl)-3H-[1,2,3]triazolo[4,5-d]pyrimidine], for which the concentration giving a half-maximal response (EC50) in test [1] (setting [3]) is 1090 nM; in test [2], 3.2 nM. As to `CC(C)(C)c1nc(N2CC(F)(F)C2)c2nnn(Cc3ccccc3Cl)c2n1` [Example 12, 5-tert-Butyl-3-(2-chloro-benzyl)-7-(3,3-difluoro-azetidin-1-yl)-3H-[1,2,3]triazolo[4,5-d]pyrimidine], the EC50 in test [1] (setting [3]) stood at 1110 nM; in test [2], 1.6 nM. As for `CC(C)(C)c1nc(N2CC(O)C2)c2nnn(Cc3ccccc3Cl)c2n1` [Example 13], the figures for the EC50 in test [1] (setting [3]) and in test [2] were more than 10000 nM and 12.3 nM, respectively.

Take `CC1(O)CN(c2nc(C(C)(C)C)nc3c2nnn3Cc2ccccc2Cl)C1` [Example 14, 1-[5-tert-Butyl-3-(2-chloro-benzyl)-3H-[1,2,3]triazolo[4,5-d]pyrimidin-7-yl]-3-methyl-azetidin-3-ol]: the EC50 in test [1] (setting [3]) came to 1230 nM; in test [2] it was 2.1 nM.

With `COC1CN(c2nc(C(C)(C)C)nc3c2nnn3Cc2ccccc2Cl)C1` [Example 15, 5-tert-Butyl-3-(2-chloro-benzyl)-7-(3-methoxy-azetidin-1-yl)-3H-[1,2,3]triazolo[4,5-d]pyrimidine], the figures for the EC50 in test [1] (setting [3]) and in test [2] were 970 nM and 3.2 nM, respectively. `C[C@@H]1CN(c2nc(C(C)(C)C)nc3c2nnn3Cc2ccccc2Cl)C[C@H](C)O1` [Example 16, 5-tert-Butyl-3-(2-chloro-benzyl)-7-((2R,6S)-2,6-dimethyl-morpholin-4-yl)-3H-[1,2,3]triazolo[4,5-d]pyrimidine]: the EC50 in test [1] was more than 10000 nM; in test [2], 286 nM. As to `CC1COCCN1c1nc(C(C)(C)C)nc2c1nnn2Cc1ccccc1Cl` (stereo not shown) [Example 17, 5-tert-Butyl-3-(2-chloro-benzyl)-7-(3-methyl-morpholin-4-yl)-3H-[1,2,3]triazolo[4,5-d]pyrimidine], the EC50 was more than 10000 nM in test [1] (setting [3]) and 8.7 nM in test [2]. `CC(C)(C)c1nc(N2CCOC(CO)C2)c2nnn(Cc3ccccc3Cl)c2n1` (stereo not shown) [Example 18, {4-[5-tert-Butyl-3-(2-chloro-benzyl)-3H-[1,2,3]triazolo[4,5-d]pyrimidin-7-yl]-morpholin-2-yl}-methanol]: the EC50 in test [1] (setting [3]) was more than 10000 nM; in test [2], 46.6 nM. Consider `CC(C)(C)c1nc(N2CCSC2)c2nnn(Cc3ccccc3Cl)c2n1` [Example 19, 5-tert-Butyl-3-(2-chloro-benzyl)-7-thiazolidin-3-yl-3H-[1,2,3]triazolo[4,5-d]pyrimidine], for which the EC50 in test [1] (setting [3]) is 131 nM; in test [2], 1.7 nM. On the same counts, the results for `CC(C)(C)c1nc(N2CCSCC2)c2nnn(Cc3ccccc3Cl)c2n1` [Example 20, 5-tert-Butyl-3-(2-chloro-benzyl)-7-thiomorpholin-4-yl-3H-[1,2,3]triazolo[4,5-d]pyrimidine] are 346 nM and 1.7 nM.

With `CC(C)(C)c1nc(N2CCS(=O)(=O)CC2)c2nnn(Cc3ccccc3Cl)c2n1` [Example 21, 5-tert-Butyl-3-(2-chloro-benzyl)-7-(1,1-dioxo-1λ6-thiomorpholin-4-yl)-3H-[1,2,3]triazolo[4,5-d]pyrimidine], the results for the EC50 in test [1] (setting [3]) and in test [2] were 601 nM and 2.7 nM, respectively. On the same counts, the results for `CC(C)(C)c1nc(N2CCCOCC2)c2nnn(Cc3ccccc3Cl)c2n1` [Example 22, 5-tert-Butyl-3-(2-chloro-benzyl)-7-[1,4]oxazepan-4-yl-3H-[1,2,3]triazolo[4,5-d]pyrimidine] are 1500 nM and 2.4 nM. For `CC1(C)CN(c2nc(C(C)(C)C)nc3c2nnn3Cc2ccccc2Cl)CCO1` [Example 23, 5-tert-Butyl-3-(2-chloro-benzyl)-7-(2,2-dimethyl-morpholin-4-yl)-3H-[1,2,3]triazolo[4,5-d]pyrimidine], in that order: more than 10000 nM and 75.4 nM. Consider `CC(C)(C)c1nc(N2CCC(F)(F)C2)c2nnn(C3COC3)c2n1` [Example 91, 5-tert-Butyl-7-(3,3-difluoro-pyrrolidin-1-yl)-3-oxetan-3-yl-3H-[1,2,3]triazolo[4,5-d]pyrimidine], for which, in test [2], the EC50 amounted to 0.3 nM.

For `CC(C)(C)c1nc(N2CCC(F)(F)C2)c2nnn(C(=O)c3ccccc3Cl)c2n1` [Example 92, [5-tert-Butyl-7-(3,3-difluoro-pyrrolidin-1-yl)-[1,2,3]triazolo[4,5-d]pyrimidin-3-yl]-(2-chloro-phenyl)-methanone], the EC50 in test [2] was found to be 350 nM. For `CC(C)(C)c1nc(N2C[C@@H](O)C(F)(F)C2)c2nnn(Cc3ccccc3Cl)c2n1` [Example 95, (R)-1-[5-tert-Butyl-3-(2-chloro-benzyl)-3H-[1,2,3]triazolo[4,5-d]pyrimidin-7-yl]-4,4-difluoro-pyrrolidin-3-ol], the EC50 in test [2] is 1.5 nM. Turning to `CC(C)(C)c1nc(N2CCC(F)(F)C2)c2nnn(S(=O)(=O)c3ccccc3Cl)c2n1` [Example 107, 5-tert-Butyl-3-(2-chloro-benzenesulfonyl)-7-(3,3-difluoro-pyrrolidin-1-yl)-3H-[1,2,3]triazolo[4,5-d]pyrimidine], the EC50 in test [2] was 284 nM.
